# Assay results published in patent US20210275480A1, “COMPOSITIONS AND METHODS FOR THE REDUCTION OR TREATMENT OF FIBROSIS” (AXCELLA HEALTH INC., priority 2018, published 2021).
# Values joined by “and” are separate entries in the source; they are usually repeats but may differ in a detail not shown here. Identical values can stand only once.
# Test system: STAM mice (NASH)
# Test: STAM model of NASH (Example 2): NAFLD activity score, Sirius red, α-SMA staining
# Type: in vivo, mouse
# Design: key to NAFLD Activity: Ballooning Score, mean / NAFLD Activity: Steatosis Score, mean / NAFLD Activity: Inflammation Score, mean / NAFLD Activity Score: raw data / NAFLD Activity: Steatosis Score: raw data / NAFLD Activity: Ballooning Score: raw data: NAS = steatosis (0-3) + inflammation (0-2) + ballooning (0-2)
# Experimental: Amino Acid Composition A-1 and Obeticholic acid (6α-ethyl-chenodeoxycholic acid; “OCA”) were tested for their ability to treat NASH in the STAM™ model (Stelic Institute & Co., Tokyo, Japan; Saito K. et al., 2015 Sci Rep 5: 12466). Two additional groups of normal C57BL/6 mice fed standard chow and vehicle treated STAM™ mice were included as controls. All animals receiving treatment or vehicle were treated starting at 6 weeks until 9 weeks of age. Compounds were administered via oral gavage, with a dose volume of 10 ml/kg. Amino Acid Composition A-1 was administered twice daily at a dose of 1500 mg/kg, and OCA was administered once daily at a dose of 30 mg/kg.
# STAM™ is a model for non-alcoholic steatohepatitis (NASH) and hepatocellular carcinoma (HCC), developed by SMC Laboratories, Inc. and created by the combination of chemical and dietary interventions using C57BL/6 mice (Saito K. et al., 2015 Sci Rep 5: 12466). Mice are treated with a low dose of streptozotocin at birth and fed a high fat diet starting at 4 weeks. Evidence of fatty liver is present by 5 weeks, followed by NASH by 7 weeks and fibrosis by 9 weeks.
# NASH was induced in 53 male mice by a single subcutaneous injection of 200 μg streptozotocin (STZ, Sigma-Aldrich, USA) solution 2 days after birth and feeding with high fat diet (HFD, 57 kcal % fat, Cat #HFD32, CLEA Japan, Japan) after 4 weeks of age.
# Amino Acid Composition A-1, OCA and Vehicle (described below) were administered by oral route in a volume of 10 mL/kg. Amino Acid Composition A-1 was solubilized in deionized water to 150 mg/ml (10×). OCA (Advanced ChemBlocks Inc.) was resuspended in 0.5% methylcellulose in water to 3 mg/ml (10×). Amino Acid Composition A-1 was administered at a dose of 1500 mg/kg twice daily (9 am and 7 pm). OCA was administered at a dose of 30 mg/kg once daily (9 am).
# Liver samples from mice in Group 2 (Vehicle), 3 (Amino Acid Composition A-1) and 4 (OCA) were used for the following assays. For HE staining, sections were cut from paraffin blocks of liver tissue prefixed in Bouin's solution and stained with Lillie-Mayer's Hematoxylin (Muto Pure Chemicals Co., Ltd., Japan) and eosin solution (Wako Pure Chemical Industries). NAFLD Activity score (NAS) was calculated according to the criteria of Kleiner (Kleiner D. E. et al., Hepatology, 2005; 41:1313).
# Group 3: Amino Acid Composition A-1: Ten NASH mice were orally administered water for irrigation supplemented with Amino Acid Composition A-1 at a dose of 1500 mg/kg twice daily (9 am and 7 pm) from 6 to 9 weeks of age.
# Group 4: OCA: Ten NASH mice were orally administered 0.5% methylcellulose supplemented with OCA at a dose of 30 mg/kg once daily (9 am) from 6 to 9 weeks of age.
# The non-alcoholic fatty liver disease (NAFLD) activity score was assessed via histological analysis and grading of H&E stained liver sections from each animal. This score is the sum of three individual scores that grade the degree of steatosis (0-3), inflammation (0-2), and hepatocyte ballooning (0-2). All tissues were graded using the scoring criteria of Kleiner et al. (Kleiner et al. Hepatology. 2005; 41(6): 1313-21). Data are mean±standard deviation (stdev). […] Both Amino Acid Composition A-1 and OCA were statistically different from vehicle for NAFLD Activity Score when compared using Dunnett's multiple comparisons test (Amino Acid Composition A-1 p=0.0001, OCA p=0.0001).
# Fibrosis was assessed by analysis of Sirius red positively stained cell area from stained liver sections from each animal. Images were quantified using the percent of positively stained area was used as a measure of fibrosis. Data are mean±standard deviation (stdev). […] Amino Acid Composition A-1 and OCA were statistically different from vehicle when compared using Dunnett's multiple comparisons test (Amino Acid Composition A-1 p=0.00494, OCA p<0.016).
# Liver sections of all mice were stained for the marker α-smooth muscle actin (aSMA) to identify activated hepatic stellate cells. […]
# [1] = STAM mice liver sections, A-1 1500 mg/kg twice daily, OCA 30 mg/kg once daily
# [2] = STAM mice treated 6 to 9 weeks of age, A-1 1500 mg/kg twice daily, OCA 30 mg/kg once daily
smiles,measurement,setting,value
"CC[C@H]1[C@@H](O)[C@@H]2[C@H](CC[C@]3(C)[C@@H]([C@H](C)CCC(=O)O)CC[C@@H]23)[C@@]2(C)CC[C@@H](O)C[C@@H]12 [OCA, 6α-ethyl-chenodeoxycholic acid]","Activated hepatic stellate cells (mean positively stained area, α-smooth muscle actin)",[1],1.562+/−0.31% and 1.562%
same,"Fibrosis (mean positively stained area, Sirius red)",[1],0.776+/−0.25% and 0.776%
same,"NAFLD Activity: Ballooning Score, mean",[2],0.3+/−0.48 and 0.3
same,"NAFLD Activity: Inflammation Score, mean",[2],1.8
same,"NAFLD Activity: Steatosis Score, mean",[2],0.8
same,"NAFLD Activity Score (NAS), mean","STAM mice treated 6 to 9 weeks of age, A-1 1500 mg/kg twice daily, OCA 30 mg/kg once daily, oral",2.9+/−0.74 and 2.9
same,"Activated hepatic stellate cells (positively stained area, α-smooth muscle actin): raw data",individual STAM mice,1.51% and 1.49% (2×) and 1.17% and 1.5% and 1.13% and 2.03% and 1.87% and 1.97% and 1.46%
same,"Fibrosis (positively stained area, Sirius red): raw data",individual STAM mice,1.1% and 1.19% and 0.89% and 0.91% and 0.66% and 0.72% and 0.68% and 0.69% and 0.36% and 0.56%
same,NAFLD Activity Score: raw data,individual STAM mice,2 (3×) and 4 (2×) and 3 (5×)
same,NAFLD Activity: Ballooning Score: raw data,individual STAM mice,0 (7×) and 1 (3×)
same,NAFLD Activity: Inflammation Score: raw data,individual STAM mice,1 (4×) and 2 (4×) and 3 (2×)
same,NAFLD Activity: Steatosis Score: raw data,individual STAM mice,1 (8×) and 0 (2×)
